# Measurements: paper PMC9228955, “Synthesis, Physicochemical, Labeling and In Vivo Characterization of ^44Sc-Labeled DO3AM-NI as a Hypoxia-Sensitive PET Probe” (Pharmaceuticals, 2022)
# What was measured:
# [1] = Stability constant of Sc(III) complex by 1H and 45Sc NMR batch samples and pH-potentiometric titration; pSc calculation; type: physicochemical; conditions: 0.15 M NaCl, 37 °C
# Description: The stability constant of the Sc(DO3AM-NI) complex was assessed by ^1H and ^45Sc-NMR studies using samples prepared in the 0.055–0.195 M acid concentration range. […] Absence of protonation and the presence of a ternary hydroxydo species formation with KScL•OH = 10.88(5) were detected at our experimental conditions. The NMR samples contained 3.32 mM ligand, ScCl3 and a constant ionic strength of 0.15 M NaCl. The samples were thermostated at 37 °C, and their ^1H- and ^45Sc-NMR spectra were recorded after 60 days. In order to ensure that the equilibrium in the samples was attained, the ^1H and ^45Sc-NMR measurements were repeated again 90 days later. The spectra were practically identical with the spectra recorded at 60 days (Figures S4 and S5). As expected, the thermodynamic stability constant of the Sc(DO3AM-NI) complex (log KScL = 22.36(4)) was considerably lower than those of Sc(III) complexes formed with DOTA, DTPA or AAZTA ligands (Table 1). A moderate decrease in terms of thermodynamic stability constants was already observed for the complexes of DO3A-monamides formed with Gd(III) ions in comparison to the stability of parent Gd(DOTA)^− chelate. Despite the lower stability constant of the complex, the Sc(III) ion was complexed completely around pH = 2.0 (in a millimolar concentration range, see Figure 2). However, it might be misleading to directly compare the stability constants of the complexes formed by ligands of different basicity (as it depends on the basicity of the ligand); therefore, we calculated and compared the pSc values (which could be treated as conditional constants) for the complexes shown in Table 1 by taking the protonation constants of ligands, the stability constants of the complex species present in solution and the hydrolysis of the Sc(III) ion (according to Ref. [23]: log βSc(OH) = −4.3, log βSc(OH)2 = −9.7, log βSc(OH)3 = −16.1, log βSc(OH)4 = −26.0 and log βSc2(OH)4 = −6.0) into account.
# The equilibrium measurements were performed at constant ionic strength maintained by 0.15 M NaCl at 37 °C. For determining the protonation constants of DO3AM-NI, two parallel pH-potentiometric titrations were performed with 0.1611 M NaOH in a 5.00 cm^3 sample containing the ligand at the concentration of 2.76 mM. The stability constant of Sc(DO3AM-NI) was assessed by ^1H and ^45Sc NMR in 0.7 mL “batch” samples containing the metal and the ligand at 3.32 mM and different concentrations of strong acid (0.05–0.20 M) aged 90 days (see below). The formation of protonated and ternary hydroxydo complex species was probed by pH-potentiometric titration by titrating the preformed complex (at a concentration of 1.95 mM) with standardized NaOH solution. For the calculation of the logKMH-1L value, the VNaOH–pH data used were obtained in the pH range 1.68–11.85. The pH-potentiometric titrations were carried out with a Metrohm 785 DMP Titrino titration workstation with the use of a Metrohm-6.0233.100-combined electrode calibrated via a two-point calibration routine using KH-phthalate (pH = 4.005) and borax (pH = 9.177) buffers. The titrated samples were stirred with a magnetic stirrer, and N2 gas was bubbled through the solutions to avoid the effect of CO2. For the calculation of [H^+] from the measured pH values, the method proposed by Irving et al. was applied. For this, a 0.01M HCl solution was titrated with the standardized NaOH solution in the presence of 0.15 M NaCl ionic strength at 37 °C. The differences between the measured (pHread) and calculated pH (-log[H^+]) values were used to obtain the equilibrium H^+ concentration from the pHmeas values during the titrations. […] For the calculation of the equilibrium constants, the PSEQUAD program was used.
# ^1H- and ^45Sc-NMR measurements (400 MHz and 97 MHz, respectively) were performed with a Bruker DRX 400 (9.4 T) spectrometer equipped with a Bruker VT-1000 thermocontroller and a BB inverse z-gradient probe (5 mm). […]
# [2] = Formation rate of Sc(DO3AM-NI) at acidic pH followed by 1H and 45Sc NMR; type: physicochemical; conditions: pH = 1.52, 25 °C, 3.80 mM ligand, 4.90 mM ScCl3
# Description: This is promising for the labeling studies, yet it also underlines that the so-called “batch-method” must be applied in very acidic samples for the determination of the stability constant of the Sc(DO3AM-NI) chelate.
# ^1H- and ^45Sc-NMR measurements (400 MHz and 97 MHz, respectively) were performed with a Bruker DRX 400 (9.4 T) spectrometer equipped with a Bruker VT-1000 thermocontroller and a BB inverse z-gradient probe (5 mm). The kinetic experiments were performed at 25 °C, whereas the equilibrium studies were performed at 37 °C in aqueous solutions using D2O (in capillary) for locking. Typical parameters of ^45Sc-NMR measurements used were pulse length p1 = 15.6 μs (90°), relaxation delay d1 = 0.1 s and 128 scans. The formation reaction of the Sc(DO3AM-NI) complex was followed by ^1H- and ^45Sc-NMR spectroscopy in a sample containing 3.80 mM ligand and 4.90 mM ScCl3 with a total acid concentration corresponding to a pH of 1.54. […] Actually, the intensity of the ^45Sc-NMR signal of Sc(III)aq could precisely be measured while that of the broad signal corresponding to the Sc(DO3AM-NI) complex could not. […] The molar integral values of the ^45Sc-NMR signal of Sc(III)aq were determined by recording the ^45Sc-NMR spectra of a 50 mM ScCl3 solution containing 0.015 M HCl as a reference sample. […]
compound,measurement,setting,value
O=C([O-])CN1CCN(CC(=O)[O-])CCN(CC(=O)NCCn2ccnc2[N+](=O)[O-])CCN(CC(=O)[O-])CC1.[Sc+3] [Sc(DO3AM-NI)],log KScL•OH (ternary hydroxydo species),[1],10.88(5)
same,log KSc•L (stability constant of Sc(III) complex),[1],22.36(4)
same,pH around which the Sc(III) ion is complexed completely,[1]; millimolar concentration range,~2.0
same,time for complex formation to reach equilibrium,[2],about twelve
